What was measured:
Conditions in all cases: incubation time: 72 h
DU-4475 = experiment: normalised response (% of control), CellTox Green; higher = less cell death (100 = DMSO, 0 = benzethonium chloride kill control)
Method in brief: (§1)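 A 20 µl suspension of breast cancer cells was seeded into each well of 384-well plates containing compound at 5 concentrations in 10-fold steps over a compound-specific 10,000-fold range. After 72 h incubation, CellTox Green fluorescence (485/520 nm) was read first, and CellTiter-Glo luminescence was read after 10 min at room temperature. Each plate was normalised against 0.1 % DMSO (100) and a positive kill control (0), and each value is the normalised signal at one concentration.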

MFM-223 [1] = experiment: as above
Method in brief: as §1

BT-549 [2] = experiment: as above
Method in brief: as §1

MDA-MB-453 [3] = experiment: as above
Method in brief: as §1

MCF-10A [4] = experiment: as above
Method in brief: as §1

Hs578T [5] = experiment: as above
Method in brief: as §1

CAL-120 = experiment: normalised response (% of control), CellTiter-Glo; higher = more viable cells (100 = DMSO, 0 = benzethonium chloride kill control)
Method in brief: as §1

MFM-223 [6] = experiment: as above
Method in brief: as §1

HCC1143 = experiment: as above
Method in brief: as §1

CAL-51 = experiment: as above
Method in brief: as §1

MDA-MB-468 = experiment: as above
Method in brief: as §1

BT-474 = experiment: as above
Method in brief: as §1

SK-BR-3 = experiment: as above
Method in brief: as §1

BT-549 [7] = experiment: as above
Method in brief: as §1

MDA-MB-453 [8] = experiment: as above
Method in brief: as §1

MDA-MB-436 = experiment: as above
Method in brief: as §1

CAL-85-1 = experiment: as above
Method in brief: as §1

MDA-MB-231 = experiment: as above
Method in brief: as §1

MCF-10A [9] = experiment: as above
Method in brief: as §1

HCC1937 = experiment: as above
Method in brief: as §1

HCC1599 = experiment: as above
Method in brief: as §1

Hs578T [10] = experiment: as above
Method in brief: as §1

CAL-148 = experiment: as above
Method in brief: as §1

HDQ-P1 = experiment: as above
Method in brief: as §1

Row | Structure (SMILES) | normalised response (DU-4475) | normalised response (MFM-223 [1]) | normalised response (BT-549 [2]) | normalised response (MDA-MB-453 [3]) | normalised response (MCF-10A [4]) | normalised response (Hs578T [5]) | normalised response (CAL-120) | normalised response (MFM-223 [6]) | normalised response (HCC1143) | normalised response (CAL-51) | normalised response (MDA-MB-468) | normalised response (BT-474) | normalised response (SK-BR-3) | normalised response (BT-549 [7]) | normalised response (MDA-MB-453 [8]) | normalised response (MDA-MB-436) | normalised response (CAL-85-1) | normalised response (MDA-MB-231) | normalised response (MCF-10A [9]) | normalised response (HCC1937) | normalised response (HCC1599) | normalised response (Hs578T [10]) | normalised response (CAL-148) | normalised response (HDQ-P1)
1 | Cc1c(N)nc([C@H](CC(N)=O)NC[C@H](N)C(N)=O)nc1C(=O)N[C@H](C(=O)N[C@H](C)[C@@H](O)[C@H](C)C(=O)N[C@H](C(=O)NCCc1nc(-c2nc(C(=O)NCCC[S+](C)C)cs2)cs1)[C@@H](C)O)[C@@H](OC1OC(CO)C(O)C(O)C1OC1OC(CO)C(O)C(OC(N)=O)C1O)c1cnc[nH]1 (stereo partly specified) [Bleomycin] (10000 nM) | 92.1% | 94.4% | 82.7% | 90.6% | 112% | 24.7% |  |  |  |  |  |  |  |  |  |  |  |  |  |  |  |  |  | 
2 | Cc1cc2c(F)c(Oc3ncnn4cc(OC[C@@H](C)O)c(C)c34)ccc2[nH]1 [Brivanib] (100 nM) | 104% | 102% | 117% | 103% | 107% |  | 109% | 107% | 107% | 80.6% | 108% | 107% | 103% | 94% | 97% | 110% | 97.1% | 107% | 111% | 97.4% | 126% | 98.8% | 105% | 104%
3 | Cc1cc2c(F)c(Oc3ncnn4cc(OC[C@@H](C)O)c(C)c34)ccc2[nH]1 [Brivanib] (1000 nM) | 102% | 98.6% | 95.7% | 92.5% | 105% | 98.4% |  |  |  |  |  |  |  |  |  |  |  |  |  |  |  |  |  | 
4 | CCCCCOC(=O)Nc1nc(=O)n([C@@H]2O[C@H](C)[C@@H](O)[C@H]2O)cc1F [Capecitabine] (10000 nM) | 97.5% |  | 117% | 104% | 74.1% | 56.1% |  |  |  |  |  |  |  |  |  |  |  |  |  |  |  |  |  | 
5 | CC(C)C[C@H](NC(=O)[C@H](CCc1ccccc1)NC(=O)CN1CCOCC1)C(=O)N[C@@H](Cc1ccccc1)C(=O)N[C@@H](CC(C)C)C(=O)[C@@]1(C)CO1 [Carfilzomib] (1000 nM) | 87.3% | 55.2% | 62.5% | 91.3% | -56% | -63.5% |  |  |  |  |  |  |  |  |  |  |  |  |  |  |  |  |  | 
6 | Nc1nc(Cl)nc2c1ncn2[C@@H]1O[C@H](CO)[C@@H](O)[C@@H]1F [Clofarabine] (10000 nM) | 89.1% | 102% | 87.3% | 95.2% | 110% | 142% |  |  |  |  |  |  |  |  |  |  |  |  |  |  |  |  |  | 
7 | CCN(CC)CCOc1ccc(C(=C(Cl)c2ccccc2)c2ccccc2)cc1 [Clomifene] (1000 nM) | 99.3% |  | 114% | 104% | 80.3% | 102% | 102% | 100% | 102% | 95.2% | 103% | 98.5% | 101% | 95.5% | 94.2% | 104% | 94.2% | 99.2% | 101% | 93.8% | 92.7% | 94.3% | 106% | 95.9%
8 | CCN(CC)CCOc1ccc(C(=C(Cl)c2ccccc2)c2ccccc2)cc1 [Clomifene] (10000 nM) | 53.4% | 40.9% | 82.5% | 18.9% | 60.3% | -60.1% |  |  |  |  |  |  |  |  |  |  |  |  |  |  |  |  |  | 
9 | C[C@@H]1C[C@H]2[C@@H]3CCC4=CC(=O)C=C[C@]4(C)[C@@]3(F)[C@@H](O)C[C@]2(C)[C@@]1(O)C(=O)CO [Dexamethasone] (10000 nM) | 97.4% | 101% | 100% | 100% | 81.8% | 87.4% |  |  |  |  |  |  |  |  |  |  |  |  |  |  |  |  |  | 
10 | CC(C)C(=O)Nc1ccc([N+](=O)[O-])c(C(F)(F)F)c1 [Flutamide] (10000 nM) | 98.6% | 89% | 111% | 102% | 106% | 124% |  |  |  |  |  |  |  |  |  |  |  |  |  |  |  |  |  | 
11 | COc1cc2c(Oc3ccc(NC(=O)C4(C(=O)Nc5ccc(F)cc5)CC4)cc3F)ccnc2cc1OCCCN1CCOCC1 [Foretinib] (1000 nM) | 95.2% | 84.4% | 88.3% | 93.5% | 101% | 75.7% |  |  |  |  |  |  |  |  |  |  |  |  |  |  |  |  |  | 
12 | NC(=O)NO [Hydroxyurea] (10000 nM) | 103% | 79.9% | 115% | 106% | 99.2% |  | 95.7% | 105% | 105% | 45.2% | 107% | 92.7% | 110% | 90.8% | 114% | 97.7% | 98.2% | 103% | 109% | 98.4% | 111% | 109% | 101% | 100%
13 | NC(=O)NO [Hydroxyurea] (100000 nM) | 97.6% | 96.8% | 109% | 91.5% | 96.7% |  |  |  |  |  |  |  |  |  |  |  |  |  |  |  |  |  |  | 
14 | O=NN(CCCl)C(=O)NC1CCCCC1 [Lomustine] (10000 nM) | 98.9% | 103% | 93.2% | 100% | 88.2% | 113% |  |  |  |  |  |  |  |  |  |  |  |  |  |  |  |  |  | 
15 | O=C(O)CC[C@H]1CC[C@@](c2cc(F)ccc2F)(S(=O)(=O)c2ccc(Cl)cc2)CC1 [MK-0752] (1000 nM) | 104% | 57.7% | 107% |  | 114% | 91.9% |  |  |  |  |  |  |  |  |  |  |  |  |  |  |  |  |  | 
16 | NC(=O)c1cccc2cn(-c3ccc([C@@H]4CCCNC4)cc3)nc12 [MK-4827] (10000 nM) | 89.2% | 98.7% | 103% | 105% | 94.8% | 118% |  |  |  |  |  |  |  |  |  |  |  |  |  |  |  |  |  | 
17 | O=C(c1cc(Cc2n[nH]c(=O)c3ccccc23)ccc1F)N1CCN(C(=O)C2CC2)CC1 [Olaparib] (1000 nM) | 99.7% |  | 124% | 112% | 101% | 83.4% | 92.3% | 101% | 94.8% | 98.5% | 91.8% | 87.6% | 92% | 94.9% | 132% | 75.2% | 101% | 88.7% | 92.3% | 95.6% | 101% | 97.5% | 83.1% | 96.6%
18 | CO[C@H](C(=O)[C@@H](O)[C@@H](C)O)[C@@H]1Cc2cc3cc(O[C@H]4C[C@@H](O[C@@H]5C[C@@H](O)[C@H](O)[C@@H](C)O5)[C@H](O)[C@@H](C)O4)c(C)c(O)c3c(O)c2C(=O)[C@H]1O[C@H]1C[C@@H](O[C@@H]2C[C@@H](O)[C@@H](O[C@@H]3C[C@](C)(O)[C@H](O)[C@@H](C)O3)[C@@H](C)O2)[C@H](O)[C@@H](C)O1 [Plicamycin] (10000 nM) | 87.9% | 88.4% | 79.8% | 45.7% | 9.61% | 40.9% |  |  |  |  |  |  |  |  |  |  |  |  |  |  |  |  |  | 
19 | C[C@]12C=CC(=O)C=C1CC[C@@H]1[C@@H]2C(=O)C[C@@]2(C)[C@H]1CC[C@]2(O)C(=O)CO [Prednisone] (10000 nM) | 103% | 100% | 99.6% | 100% | 104% |  |  |  |  |  |  |  |  |  |  |  |  |  |  |  |  |  |  | 
20 | CO[C@H]1C[C@@H]2CC[C@@H](C)[C@@](O)(O2)C(=O)C(=O)N2CCCC[C@H]2C(=O)O[C@H]([C@H](C)C[C@@H]2CC[C@@H](O)[C@H](OC)C2)CC(=O)[C@H](C)/C=C(\C)[C@@H](O)[C@@H](OC)C(=O)[C@H](C)C[C@H](C)/C=C/C=C/C=C/1C [Sirolimus] (100 nM) | 98.5% | 103% | 93.7% | 106% | 107% | 106% |  |  |  |  |  |  |  |  |  |  |  |  |  |  |  |  |  | 
21 | CN1CCN(c2nc(C3=C(c4c[nH]c5ccccc45)C(=O)NC3=O)c3ccccc3n2)CC1 [Sotrastaurin] (10000 nM) | 100% | 101% | 99.7% | 107% | 104% | 118% |  |  |  |  |  |  |  |  |  |  |  |  |  |  |  |  |  | 
22 | CC/C(=C(\c1ccccc1)c1ccc(OCCN(C)C)cc1)c1ccccc1 [Tamoxifen] (10000 nM) | 91.1% | 88% | 86.1% | 35.6% | 81.5% | 74.1% |  |  |  |  |  |  |  |  |  |  |  |  |  |  |  |  |  | 
23 | C[C@@H](C(=O)O)c1ccc(-c2ccccc2)c(F)c1 [Tarenflurbil] (1000 nM) | 96.6% | 87.5% | 108% | 102% | 91.4% |  | 96.5% | 95% | 92.5% | 119% | 94.8% | 92% | 87.8% | 99.3% | 96% | 100% | 98.8% | 95% | 90.1% | 94.7% | 106% | 101% | 91.7% | 94.7%
24 | Cn1nnc2c(C(N)=O)ncn2c1=O [Temozolomide] (10000 nM) | 98.2% | 97.3% | 75.3% | 101% | 93.2% | 111% |  |  |  |  |  |  |  |  |  |  |  |  |  |  |  |  |  | 
25 | CC[C@@H]1C(=O)N(C)c2cnc(Nc3ccc(C(=O)N[C@H]4CC[C@H](N5CCN(CC6CC6)CC5)CC4)cc3OC)nc2N1C(C)C [Volasertib] (1000 nM) | 90.4% | 70.6% | 71% | 91.3% | 56.1% | -77.7% |  |  |  |  |  |  |  |  |  |  |  |  |  |  |  |  |  | 

Reference: the supplement of paper PMC4862054
